Measurements as given in PubChem BioAssay AID2060893 (Molecular Pharmacology Branch, DTP, NCI, 2025).

Test system: K86415-001-R-J1-PDC complex spheroids, viability
Test: Anticancer human tumor K86415-001-R-J1-PDC patient-derived lung adenocarcinoma cell line growth inhibition [RAS]
Conditions: for IC50: curve of first compound; for viability, T/C: stronger effect = lower value; active = viability on the fitted dose curve at most 10% of control; inactive = the rest
Procedure, shortened: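 Multi-cell-type spheroids: tumor cells plus HUVEC endothelial cells and mesenchymal stem cells. RAS-pathway inhibitors were combined with targeted agents, each dosed in half-log steps down from clinical Cmax, or from 10 microM when Cmax was unknown.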
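Also: spheroids exposed to agents for seven days before readout.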

CC(C)NCC(C(=O)N1CCN(c2ncnc3c2C(C)CC3O)CC1)c1ccc(Cl)cc1 (centres undefined) + C#Cc1c(F)ccc2cc(O)cc(-c3ncc4c(N5CC6CCC(C5)N6)nc(OCC56CCCN5CC(F)C6)nc4c3F)c12
< 31.6 nM: IC50 (second compound 3.16 µM) | IC50 (second compound 10 µM)
4250 nM: IC50 (second compound 1 µM)
7490 nM: IC50 (second compound 0.0316 µM)
7290 nM: IC50 (second compound 0.1 µM)
inactive: viability, T/C (second compound 0.0316 µM, first compound 0.0316 µM) 109% | viability, T/C (second compound 0.0316 µM, first compound 0.1 µM) 106% | viability, T/C (second compound 0.0316 µM, first compound 0.316 µM) 106% | viability, T/C (second compound 0.0316 µM, first compound 1 µM) 89.6% | viability, T/C (second compound 0.0316 µM, first compound 3.16 µM) 72.3% | viability, T/C (second compound 0.0316 µM, first compound 10 µM) 42.6% | viability, T/C (second compound 0.1 µM, first compound 0.0316 µM) 113% | viability, T/C (second compound 0.1 µM, first compound 0.1 µM) 103% | viability, T/C (second compound 0.1 µM, first compound 0.316 µM) 113% | viability, T/C (second compound 0.1 µM, first compound 1 µM) 90.4% | viability, T/C (second compound 0.1 µM, first compound 3.16 µM) 68.7% | viability, T/C (second compound 0.1 µM, first compound 10 µM) 43.1% | viability, T/C (second compound 0.316 µM, first compound 0.0316 µM) 97% | viability, T/C (second compound 0.316 µM, first compound 0.1 µM) 94.1% | viability, T/C (second compound 0.316 µM, first compound 0.316 µM) 90.9% | viability, T/C (second compound 0.316 µM, first compound 1 µM) 84.7% | viability, T/C (second compound 0.316 µM, first compound 3.16 µM) 64.4% | viability, T/C (second compound 0.316 µM, first compound 10 µM) 45.3% | viability, T/C (second compound 1 µM, first compound 0.0316 µM) 74.4% | viability, T/C (second compound 1 µM, first compound 0.1 µM) 62% | viability, T/C (second compound 1 µM, first compound 0.316 µM) 56.2% | viability, T/C (second compound 1 µM, first compound 1 µM) 65.1% | viability, T/C (second compound 1 µM, first compound 3.16 µM) 54.8% | viability, T/C (second compound 1 µM, first compound 10 µM) 39.3% | viability, T/C (second compound 3.16 µM, first compound 0.0316 µM) 35.2% | viability, T/C (second compound 3.16 µM, first compound 0.1 µM) 38.2% | viability, T/C (second compound 3.16 µM, first compound 0.316 µM) 26.3% | viability, T/C (second compound 3.16 µM, first compound 1 µM) 25.8% | viability, T/C (second compound 3.16 µM, first compound 3.16 µM) 38.4% | viability, T/C (second compound 3.16 µM, first compound 10 µM) 25.6% | viability, T/C (second compound 10 µM, first compound 0.0316 µM) 18.7% | viability, T/C (second compound 10 µM, first compound 0.1 µM) 15.8% | viability, T/C (second compound 10 µM, first compound 0.316 µM) 16.4% | viability, T/C (second compound 10 µM, first compound 1 µM) 24.7% | viability, T/C (second compound 10 µM, first compound 3.16 µM) 16.9% | viability, T/C (second compound 10 µM, first compound 10 µM) 5.88%
7560 nM: IC50 (second compound 0.316 µM)

NC1c2ccccc2OC12CCN(c1cnc3c(N4CCCc5ncccc54)n[nH]c3n1)CC2 (centres undefined) + CCn1c(-c2cc(N3CCN(C)CC3)cnc2C(C)OC)c2c3cc(ccc31)-c1csc(n1)CC(NC(=O)C1CC1C)C(=O)N1CCCC(N1)C(=O)OCC(C)(C)C2
inactive: viability, T/C (second compound 0.000949 µM, first compound 0.0316 µM) 17.9% | viability, T/C (second compound 0.000949 µM, first compound 0.1 µM) 13.2%
< 31.6 nM: IC50 (second compound 0.000949 µM) | IC50 (second compound 0.003 µM) | IC50 (second compound 0.00949 µM) | IC50 (second compound 0.03 µM) | IC50 (second compound 0.0949 µM) | IC50 (second compound 0.3 µM)
active: viability, T/C (second compound 0.000949 µM, first compound 0.316 µM) 7.58% | viability, T/C (second compound 0.000949 µM, first compound 1 µM) 9.76% | viability, T/C (second compound 0.000949 µM, first compound 3.16 µM) 9.06% | viability, T/C (second compound 0.000949 µM, first compound 10 µM) 7.7% | viability, T/C (second compound 0.003 µM, first compound 0.0316 µM) 9.27% | viability, T/C (second compound 0.003 µM, first compound 0.1 µM) 8.67% | viability, T/C (second compound 0.003 µM, first compound 0.316 µM) 6.53% | viability, T/C (second compound 0.003 µM, first compound 1 µM) 6.35% | viability, T/C (second compound 0.003 µM, first compound 3.16 µM) 4.86% | viability, T/C (second compound 0.003 µM, first compound 10 µM) 5.29% | viability, T/C (second compound 0.00949 µM, first compound 0.0316 µM) 7.91% | viability, T/C (second compound 0.00949 µM, first compound 0.1 µM) 5.02% | viability, T/C (second compound 0.00949 µM, first compound 0.316 µM) 5.89% | viability, T/C (second compound 0.00949 µM, first compound 1 µM) 4.63% | viability, T/C (second compound 0.00949 µM, first compound 3.16 µM) 5.75% | viability, T/C (second compound 0.00949 µM, first compound 10 µM) 4.91% | viability, T/C (second compound 0.03 µM, first compound 0.0316 µM) 5.17% | viability, T/C (second compound 0.03 µM, first compound 0.1 µM) 4.43% | viability, T/C (second compound 0.03 µM, first compound 0.316 µM) 5.11% | viability, T/C (second compound 0.03 µM, first compound 1 µM) 5.46% | viability, T/C (second compound 0.03 µM, first compound 3.16 µM) 3.67% | viability, T/C (second compound 0.03 µM, first compound 10 µM) 5.21% | viability, T/C (second compound 0.0949 µM, first compound 0.0316 µM) 3.52% | viability, T/C (second compound 0.0949 µM, first compound 0.1 µM) 4.51% | viability, T/C (second compound 0.0949 µM, first compound 0.316 µM) 4.52% | viability, T/C (second compound 0.0949 µM, first compound 1 µM) 3.8% | viability, T/C (second compound 0.0949 µM, first compound 3.16 µM) 3.7% | viability, T/C (second compound 0.0949 µM, first compound 10 µM) 4.75% | viability, T/C (second compound 0.3 µM, first compound 0.0316 µM) 4.69% | viability, T/C (second compound 0.3 µM, first compound 0.1 µM) 4.26% | viability, T/C (second compound 0.3 µM, first compound 0.316 µM) 4.59% | viability, T/C (second compound 0.3 µM, first compound 1 µM) 3.96% | viability, T/C (second compound 0.3 µM, first compound 3.16 µM) 4.65% | viability, T/C (second compound 0.3 µM, first compound 10 µM) 4.77%
